Calls of active or inactive are those of the source.
Tests used:
[1] = Inhibition of macroscopic off-rate of bound PICK1 in Tac-YFP-Dat C24 expressing human HEK293 supported cell membrane sheets; assay type: cell membranes
[2] = species on record: Mus musculus; experiment: Anti-hypersensitive activity in mouse model of spared nerve injury-induced acute neuropathic pain assessed as reduction in GluA1 surface levels in spinal cord at 20 uM, IT by immunoblot analysis; assay type: functional, organism-based
[3] = species on record: Mus musculus; experiment: Disruption of PICK1-GluA2 interaction in lumbar spinal cord lysates of male C57BL/6 mouse assessed as reduction in GluA2 surface levels at 20 uM, IT and measured by immunoblot analysis; assay type: subcellular
[4] = species on record: Mus musculus; experiment: Anti-hypersensitive activity in mouse model of spared nerve injury-induced acute neuropathic pain assessed as reduction in GluA2 surface levels in spinal cord at 20 uM, IT by immunoblot analysis; assay type: functional, organism-based
[5] = Stability of compound in PBS; assay type: physicochemical; conditions: buffer
[6] = species on record: Mus musculus; experiment: Binding affinity towards PICK1 in lumbar spinal cord lysates of mouse at 20 uM, IT([…]) and measured by immunoblot analysis; assay type: subcellular
[7] = species on record: Mus musculus; experiment: Anti-hypersensitive activity in mouse model of spared nerve injury-induced acute neuropathic pain assessed as increase in paw withdrawal threshold at 20 uM, IT by von Frey test; assay type: functional, organism-based
[8] = species on record: Mus musculus; experiment: Disruption of PICK1-GluA2 interaction in lumbar spinal cord lysates of male C57BL/6 mouse assessed as reduction in GluA1 surface levels at 20 uM, IT and measured by immunoblot analysis; assay type: subcellular
[9] = species on record: Mus musculus; experiment: Disruption of PICK1-GluA2 interaction in lumbar spinal cord lysates of male C57BL/6 mouse at 20 uM, IT and measured by co-immunoprecipitation assay; assay type: subcellular
[10] = species on record: Mus musculus; experiment: Disruption of PICK1-GluA2 interaction in lumbar spinal cord lysates of male C57BL/6 mouse assessed as reduction in GluA2 S880 phosphorylation levels at 20 uM, IT and measured by immunoblot analysis; assay type: subcellular
[11] = (§1) Binding affinity towards PICK1 in rat hippocampal neurons incubated for 1 hr and measured by DID staining method; assay type: cell-based; conditions: hippocampal neurone
[12] = Inhibition of recombinant rat SNAP-543-labeled PICK1 binding to Tac-YFP-Dat C24 expressing human HEK293 supported cell membrane sheets and measured by fluorescence polarization competition binding assay; assay type: cell membranes
[13] = species on record: Mus musculus; experiment: Antiallodynic activity in C57BL6/N mouse model of CFA-induced inflammatory pain assessed as increase in paw withdrawal threshold at 20 uM, IT by von Frey test; assay type: functional, organism-based
[14] = system: Mus musculus; experiment: Anti-hypersensitive activity in C57BL/6J mouse model of spared nerve injury-induced acute neuropathic pain assessed as increase in ipsilateral paw mechanical threshold at 10 micromol/kg, sc; assay type: functional, organism-based; conditions: dose 10.0 µmol/kg
[15] = species on record: Mus musculus; experiment: Anti-hypersensitive activity in mouse model of spared nerve injury-induced chronic neuropathic pain assessed as increase in paw withdrawal threshold at 20 uM, IT after 28 days by von Frey test; assay type: functional, organism-based; conditions: time 28.0 day
[16] = species on record: Mus musculus; experiment: Anti-hypersensitive activity in mouse model of spared nerve injury-induced chronic neuropathic pain assessed as increase in paw withdrawal threshold at 20 uM, IT after 14 days by von Frey test; assay type: functional, organism-based; conditions: time 14.0 day
[17] = system: Rattus norvegicus; experiment: Attenuation of cocaine reinstatement in 7 day cocaine treated rat assessed as effect on inactive lever response at 0.3 to 3 nmol/g, iv of TAMRA labeled compound treated for 45 mins prior to administration of cocaine injection; assay type: functional, organism-based; conditions: dose 0.3-3 nmol/g
[18] = Stability of compound in human plasma; assay type: ADME, cell-free
[19] = system: Rattus norvegicus; experiment: Attenuation of cocaine reinstatement in 7 day cocaine treated rat assessed as reduction in sucrose seeking behaviour at 3 nmol/g, iv of TAMRA labeled compound treated for 45 mins prior to administration of cocaine injection; assay type: functional, organism-based
[20] = system: Rattus norvegicus; experiment: Attenuation of cocaine reinstatement in 7 day cocaine treated rat assessed as effect on locomotor activity at 3 nmol/g, iv of TAMRA labeled compound treated for 45 mins prior to administration of cocaine injection; assay type: functional, organism-based
[21] = system: Rattus norvegicus; experiment: Attenuation of cocaine reinstatement in 7 day cocaine treated rat assessed as reduction in cocaine seeking behaviour at 0.3 to 3 nmol/g, iv of TAMRA labeled compound treated for 45 mins prior to administration of cocaine injection; assay type: functional, organism-based; conditions: dose 0.3-3 nmol/g
[22] = system: Hippocampal neurone; experiment: as §1; assay type: cell-based
[23] = system: Mus musculus; experiment: Anti-hypersensitive activity in mouse model of spared nerve injury-induced chronic neuropathic pain assessed as increase in paw withdrawal threshold at 30 mg/kg, ip after 2 hrs by von Frey test; assay type: functional, organism-based
[24] = Binding affinity towards PICK1 PDZ domain (unknown origin) measured by fluorescence polarization assay; design: species or system Homo sapiens

CC(C)C[C@H](NC(=O)[C@H](Cc1c[nH]c2ccccc12)NC(=O)[C@@H](N)Cc1cnc[nH]1)C(=O)N[C@@H](CCCCN)C(=O)N[C@H](C(=O)O)C(C)C
IC50 [1]: Not Active

CC(C)C[C@H](NC(=O)[C@H](Cc1c[nH]c2ccccc12)NC(=O)[C@H](Cc1cnc[nH]1)NC(=O)[C@H](CCCNC(=N)N)NC(=O)[C@H](CCCNC(=N)N)NC(=O)[C@H](CCCNC(=N)N)NC(=O)[C@H](CCC(N)=O)NC(=O)[C@H](CCCNC(=N)N)NC(=O)[C@H](CCCNC(=N)N)NC(=O)[C@H](CCCCN)NC(=O)[C@H](CCCCN)NC(=O)[C@H](CCCNC(=N)N)NC(=O)CNC(=O)[C@@H](N)Cc1ccc(O)cc1)C(=O)N[C@@H](CCCCN)C(=O)N[C@H](C(=O)O)C(C)C
IC50 [1]: Not Active
Activity [2]: inactive
Activity [3]: inactive
Activity [4]: inactive
Stability [5]: Unstable
Activity [6]: inactive
Activity [7]: inactive
Activity [8]: inactive
Activity [9]: inactive
Activity [10]: inactive
IC50 [11]: Active

CC(C)C[C@H](NC(=O)[C@H](Cc1c[nH]c2ccccc12)NC(=O)[C@H](Cc1cnc[nH]1)NC(=O)CCOCCOCCN(CCOCCOCCC(=O)N[C@@H](Cc1cnc[nH]1)C(=O)N[C@@H](Cc1c[nH]c2ccccc12)C(=O)N[C@@H](CC(C)C)C(=O)N[C@@H](CCCCN)C(=O)N[C@H](C(=O)O)C(C)C)C(=O)[C@H](CCCNC(=N)N)NC(=O)[C@H](CCCNC(=N)N)NC(=O)[C@H](CCCNC(=N)N)NC(=O)[C@H](CCCNC(=N)N)NC(=O)[C@H](CCCNC(=N)N)NC(=O)[C@H](CCCNC(=N)N)NC(=O)[C@H](CCCCN)NC(=O)[C@H](CCCCN)NC(=O)[C@H](CCCNC(=N)N)NC(=O)CNC(=O)[C@@H](N)Cc1ccc(O)cc1)C(=O)N[C@@H](CCCCN)C(=O)N[C@H](C(=O)O)C(C)C
IC50 [12]: 7 nM
Activity [13]: Active
IC50 ([1]; read-out: IC50): 1170 nM
Activity [2]: Active
Activity [14]: Active
Activity [15]: Active
Activity [3]: inactive
Activity [4]: Active
Activity [16]: Active
Stability [5]: Stable
Activity [17]: inactive
Stability [18]: Stable
Activity [6]: Active
Activity [19]: inactive
Activity [7]: Active
Activity [20]: inactive
Activity [8]: inactive
Activity [9]: Active
Activity [10]: Active
Activity [21]: Active
Activity [22]: Active

NCC1(CC(=O)O)CCCCC1
Activity [23]: Active

CC[C@H](C)[C@H](NC(=O)[C@H](CCCCN)NC(=O)CNC(=O)[C@H](CC(C)C)NC(=O)[C@H](CC(C)C)NC(=O)[C@H](Cc1ccc(O)cc1)NC(=O)CNC(=O)[C@H](C)NC(=O)[C@H](CO)NC(=O)[C@H](CC(N)=O)NC(=O)[C@H](CC(C)C)NC(=O)[C@@H](NC(=O)[C@H](Cc1c[nH]c2ccccc12)NC(=O)CN)[C@@H](C)O)C(=O)N[C@@H](CC(N)=O)C(=O)N[C@@H](CC(C)C)C(=O)N[C@@H](CCCCN)C(=O)N[C@@H](C)C(=O)N[C@@H](CC(C)C)C(=O)N[C@@H](C)C(=O)N[C@@H](C)C(=O)N[C@@H](CC(C)C)C(=O)N[C@@H](C)C(=O)N[C@@H](CCCCN)C(=O)N[C@@H](CCCCN)C(=O)N[C@H](C(=O)N[C@@H](CC(C)C)C(=O)N(CCOCCOCCC(=O)N[C@@H](Cc1cnc[nH]1)C(=O)N[C@@H](Cc1c[nH]c2ccccc12)C(=O)N[C@@H](CC(C)C)C(=O)N[C@@H](CCCCN)C(=O)N[C@H](C(=O)O)C(C)C)CCOCCOCCC(=O)N[C@@H](Cc1cnc[nH]1)C(=O)N[C@@H](Cc1c[nH]c2ccccc12)C(=O)N[C@@H](CC(C)C)C(=O)N[C@@H](CCCCN)C(=O)N[C@H](C(=O)O)C(C)C)[C@@H](C)CC
Activity [14]: Active
Ki [24]: 7.8 nM

Source: ChEMBL document CHEMBL5050841, “Inhibitors of pick1 and uses thereof” (2021)
